The molecules below were run against T1, CCR2 (Homo sapiens, UniProt P41597) (assay: CCR2 receptor membrane binding assay ([125I]MCP-1, THP-1 membranes, SPA beads)). Conditions: dissociation constant hKi; THP-1 cell membranes, [125I]MCP-1, bound radioactivity after 8 h.
T1 construct: Membranes were prepared from THP-1 cells; endogenous in cells; host or cells: THP-1 (human acute monocytic leukaemia cells), membrane preparation
T1 sequence (P41597 1-360 isoform P41597-2): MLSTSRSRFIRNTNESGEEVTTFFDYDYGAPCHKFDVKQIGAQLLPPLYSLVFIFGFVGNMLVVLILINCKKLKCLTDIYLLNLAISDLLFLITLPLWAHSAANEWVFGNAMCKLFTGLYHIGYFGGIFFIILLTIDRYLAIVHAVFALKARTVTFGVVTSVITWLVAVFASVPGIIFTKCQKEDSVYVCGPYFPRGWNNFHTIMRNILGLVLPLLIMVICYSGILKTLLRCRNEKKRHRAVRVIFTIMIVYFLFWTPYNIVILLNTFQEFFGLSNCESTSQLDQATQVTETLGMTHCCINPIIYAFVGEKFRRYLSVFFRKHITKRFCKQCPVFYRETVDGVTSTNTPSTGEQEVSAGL
Method: The above exemplary substances have been tested for binding to CCR2 using a binding assay as outlined herein below:
THP-1 cells (human acute monocytic leukaemia cells) were cultured under standardized conditions at 37° C. and 5% CO2 in a humidified incubator. THP-1 cells were cultivated in RPMI 1640 medium (Gibco 21875) containing 1% MEM-NEAA (Gibso 11140) 2 mM L-glutamine, 1.5 g/L sodium bicarbonate, 4.5 g/L glucose, 10 mM HEPES and 1.0 mM sodium pyruvate, 90%; 10% fetal calf serum (FCS Gibco 10500-064).
Membranes were prepared from THP-1 cells. THP-1 cells were centrifuged at 300×g at 4° C. for 10 min. The cell pellet was resuspendet in Phosphate Buffer Saline (PBS, including 10 μM Pefabloc and a protease inhibitor mix ‘complete’, Boehringer Mannheim (1 tablet/50 ml)), to a concentration of […]. The membrane preparation was performed by disrupting the cells by nitrogen […] (at 50 bar, for 1 h) in a “Nitrogen Bombe” (Parr Instrument). Cell debris was removed by centrifugation (800×g at 4° C., 1 min). The supernatant was centrifuged at 80000×g, 4° C. for 30 min to sediment the cell membranes. Usually 50 mg of protein (Bradford assay) were yielded from 1×10E9 cells. The membranes were resuspendet in 25 mM HEPES, 25 mM MgCl2, 1 mM CaCl2, 10% Glycerine for storage in aliquots at −80° C. in 25 mM HEPES, 25 mM MgCl2, 1 mM CaCl2, 10% Glycerine and stored at −80° C.
Receptor Membrane Binding Assay:
Perkin Elmer NEX 332 Jod 125 MCP-1, Stock: 2200 Ci/mmol solved in 2000 μl assay buffer, stored at −20° C. THP-1 membrane were adjusted with 25 mM HEPES, pH 7.2; 5 mM MgCl2; 0.5 mM CaCl2; 0.2% BSA assay buffer to a concentration of 2.5 μg/15 μl. Amersham Biosciences PVT-WGA Beads (RPNQ0001) were adjusted with assay buffer to a concentration of 0.24 mg/30 μl. For preparation of the membrane-bead-suspension membranes and beads were incubated for 30 min at RT under rotation (60 rpm) with a ratio of 1:2. Test compounds dissolved in 100% DMSO to a concentration of 10 mM and are further diluted with 100% DMSO to 1 mM. All additional compound dilutions were obtained with assay buffer, final 1% DMSO. Compounds, membrane-bead-suspension and [125I]MCP-1 (ca. 25000 cpm/10 μl) were incubated. Bound radioactivity was determined by scintillation counter after 8 h. Determination of affinity of test compounds (dissociation constant hKi) is calculated by iterative fitting of experimental data using the “easy sys” program, which is based on law of mass action (Schittkowski K. (1994), Numerische Mathematik, Vol. 68, 129-142).
Work on `COc1nc(NC[C@H]2CCC[C@@H](c3ccc(C(F)(F)F)cc3)O2)c(C)c(C(=O)N2CCC(N[C@H]3CCOC[C@H]3OC)CC2)n1` [Example 53ac] yielded a Ki of 0.8 nM.
With `COc1nc(NC[C@H]2CCC[C@@H](c3ccc(OC(F)(F)F)cc3)O2)c(C)c(C(=O)N2CCC(N[C@@H]3CCOC[C@@H]3OC)CC2)n1` [Example 53ad] the Ki was 0.3 nM.
`COc1nc(NC[C@H]2CCC[C@@H](c3ccc(OC(F)(F)F)cc3)O2)c(C)c(C(=O)N2CCC(N[C@H]3CCOC[C@H]3OC)CC2)n1` [Example 53ae] showed a Ki of 0.4 nM.
`COc1nc(NC[C@H]2CCC[C@@H](c3ccccc3)O2)c(C)c(C(=O)N2CCC(N[C@@H]3CCOC[C@@H]3OC)CC2)n1` [Example 53af] was tested, and the Ki was 8 nM.
Molecule `COc1nc(NC[C@H]2CCC[C@@H](c3ccccc3)O2)c(C)c(C(=O)N2CCC(N[C@H]3CCOC[C@H]3OC)CC2)n1` [Example 53ag] has a Ki of 5 nM.
For `CO[C@H]1COCC[C@H]1NC1CCN(C(=O)c2nc(C(F)(F)F)nc(NC[C@H]3CCC[C@@H](c4ccccc4)O3)c2C)CC1` [Example 53ah], the Ki was 0.8 nM.
`CO[C@@H]1COCC[C@@H]1NC1CCN(C(=O)c2nc(C(F)(F)F)nc(NC[C@H]3CCC[C@@H](c4ccccc4)O3)c2C)CC1` [Example 53ai] was tested, and the Ki was 1.1 nM.
In the case of `Cc1c(NC[C@H]2CCC[C@@H](c3ccc(OC(F)(F)F)cc3)O2)ncnc1C(=O)N1CCC(N[C@H]2CCOC[C@H]2F)CC1` [Example 53aj], the Ki is reported as 0.7 nM.
`Cc1c(NC[C@H]2CCC[C@@H](c3ccc(OC(F)(F)F)cc3)O2)ncnc1C(=O)N1CCC(N[C@@H]2CCOC[C@@H]2F)CC1` [Example 53ak] was tested, and the Ki was 0.8 nM.
Work on `CO[C@H]1COCC[C@H]1NC1CCN(C(=O)c2ncnc(NC[C@H]3CCC[C@@H](c4ccc(SC(F)(F)F)cc4)O3)c2C)CC1` [Example 53al] yielded a Ki of 0.4 nM.
For `CO[C@@H]1COCC[C@@H]1NC1CCN(C(=O)c2ncnc(NC[C@H]3CCC[C@@H](c4ccc(SC(F)(F)F)cc4)O3)c2C)CC1` [Example 53am], the Ki was 0.3 nM.
Work on `CO[C@@H]1COCC[C@@H]1NC1CCN(C(=O)c2ncnc(NC[C@H]3CCC[C@@H](c4ccc(OC(F)(F)F)cc4)O3)c2C)CC1` [Example 53b] yielded a Ki of 20 nM.
For `CO[C@H]1COCC[C@H]1NC1CCN(C(=O)c2ncnc(NC[C@@H]3CCC[C@H](c4ccc(OC(F)(F)F)cc4)O3)c2C)CC1` [Example 53c], the Ki was 98 nM.
For `CO[C@@H]1COCC[C@@H]1NC1CCN(C(=O)c2ncnc(NC[C@@H]3CCC[C@H](c4ccc(OC(F)(F)F)cc4)O3)c2C)CC1` [Example 53d], the Ki was 19 nM.
Work on `CO[C@H]1COCC[C@H]1NC1CCN(C(=O)c2ccnc(NC[C@H]3CCC[C@@H](c4ccc(C)cc4)O3)c2C)CC1` [Example 53e] yielded a Ki of 16 nM.
`CO[C@H]1COCC[C@H]1NC1CCN(C(=O)c2ncnc(NC[C@H]3CCC[C@@H](c4ccc(OC(F)(F)F)cc4)O3)c2C)CC1` [Example 53f] gave a Ki of 12 nM.
For `CO[C@@H]1COCC[C@@H]1NC1CCN(C(=O)c2ccnc(NC[C@H]3CCC[C@@H](c4ccccc4)O3)c2C)CC1` [Example 53g], the Ki was 16 nM.
With `CO[C@H]1COCC[C@H]1NC1CCN(C(=O)c2cc(NC[C@H]3CCC[C@@H](c4ccc(C)cc4)O3)nc(C(F)(F)F)n2)CC1` [Example 53h] the Ki was 2 nM.
Molecule `CO[C@@H]1COCC[C@@H]1NC1CCN(C(=O)c2cc(NC[C@H]3CCC[C@@H](c4ccc(C)cc4)O3)nc(C(F)(F)F)n2)CC1` [Example 53i] has a Ki of 2 nM.
With `CO[C@H]1COCC[C@H]1NC1CCN(C(=O)c2nccc(NC[C@H]3CCC[C@@H](c4ccc(C)cc4)O3)c2C)CC1` [Example 53j] the Ki was 21 nM.
With `CO[C@@H]1COCC[C@@H]1NC1CCN(C(=O)c2nccc(NC[C@H]3CCC[C@@H](c4ccc(C)cc4)O3)c2C)CC1` [Example 53k] the Ki was 9 nM.
Molecule `CO[C@@H]1COCC[C@@H]1NC1CCN(C(=O)c2cc(NC[C@H]3CCC[C@@H](c4ccc(OC(F)(F)F)cc4)O3)nc(C(F)(F)F)n2)CC1` [Example 53l] has a Ki of 0.5 nM.
For `CO[C@H]1COCC[C@H]1NC1CCN(C(=O)c2cc(NC[C@H]3CCC[C@@H](c4ccc(OC(F)(F)F)cc4)O3)nc(C(F)(F)F)n2)CC1` [Example 53m], the Ki was 0.3 nM.
`COc1nc(NC[C@H]2CCC[C@@H](c3ccc(C)cc3)O2)cc(C(=O)N2CCC(N[C@H]3CCOC[C@H]3OC)CC2)n1` [Example 53n] showed a Ki of 5 nM.
`COc1nc(NC[C@H]2CCC[C@@H](c3ccc(C(F)(F)F)cc3)O2)cc(C(=O)N2CCC(N[C@@H]3CCOC[C@@H]3OC)CC2)n1` [Example 53o] gave a Ki of 1 nM.
Molecule `COc1nc(NC[C@H]2CCC[C@@H](c3ccc(C(F)(F)F)cc3)O2)cc(C(=O)N2CCC(N[C@H]3CCOC[C@H]3OC)CC2)n1` [Example 53p] has a Ki of 0.8 nM.
`COc1nc(NC[C@H]2CCC[C@@H](c3ccc(OC(F)(F)F)cc3)O2)cc(C(=O)N2CCC(N[C@@H]3CCOC[C@@H]3OC)CC2)n1` [Example 53q] gave a Ki of 1 nM.
Work on `COc1nc(NC[C@H]2CCC[C@@H](c3ccc(OC(F)(F)F)cc3)O2)cc(C(=O)N2CCC(N[C@H]3CCOC[C@H]3OC)CC2)n1` [Example 53r] yielded a Ki of 0.8 nM.
`CO[C@H]1COCC[C@H]1NC1CCN(C(=O)c2cc(NC[C@H]3CCC[C@@H](c4ccc(C(F)(F)F)cc4)O3)nc(C(F)(F)F)n2)CC1` [Example 53s] gave a Ki of 0.2 nM.
`CO[C@@H]1COCC[C@@H]1NC1CCN(C(=O)c2cc(NC[C@H]3CCC[C@@H](c4ccc(C(F)(F)F)cc4)O3)nc(C(F)(F)F)n2)CC1` [Example 53t] was tested, and the Ki was 0.4 nM.
Work on `Cc1c(NC[C@H]2CCC[C@@H](c3ccc(C(F)(F)F)cc3)O2)ncnc1C(=O)N1CCC(NC2CCOCC2F)CC1` (some centres unmarked) [Example 53u] yielded a Ki of 3 nM.
Molecule `Cc1ccc([C@@H]2CCC[C@H](CNc3ncnc(C(=O)N4CCC(NC5CCOCC5F)CC4)c3C)O2)cc1` (some centres unmarked) [Example 53v] has a Ki of 7 nM.
With `Cc1c(NC[C@H]2CCC[C@@H](c3ccc(OC(F)(F)F)cc3)O2)ncnc1C(=O)N1CCC(NC2CCOCC2F)CC1` (some centres unmarked) [Example 53w] the Ki was 0.6 nM.
`Cc1ccc([C@@H]2CCC[C@H](CNc3ncnc(C(=O)N4CCC(N5CCC6(CC5)Cc5ccccc5O6)CC4)c3C)O2)cc1` [Example 53x] was tested, and the Ki was 9 nM.
For `Cc1c(NC[C@H]2CCC[C@@H](c3ccc(C(F)(F)F)cc3)O2)ncnc1C(=O)N1CCC(N2CCC3(CC2)Cc2ccccc2O3)CC1` [Example 53y], the Ki was 16 nM.
In the case of `COc1nc(NC[C@H]2CCC[C@@H](c3ccc(C)cc3)O2)c(C)c(C(=O)N2CCC(N[C@@H]3CCOC[C@@H]3OC)CC2)n1` [Example 53z], the Ki is reported as 3 nM.
Molecule `CO[C@H]1COCC[C@H]1N(C)C1CCN(C(=O)c2ncnc(NC[C@H]3CCC[C@@H](c4ccc(C)cc4)O3)c2C)CC1` [Example 54] has a Ki of 28 nM.
With `CO[C@H]1COCC[C@H]1N(C)C1CCN(C(=O)c2ncnc(NC[C@H]3CCC[C@@H](c4ccc(C(F)(F)F)cc4)O3)c2C)CC1` [Example 54a] the Ki was 5 nM.
`Cc1ccc([C@@H]2CCC[C@H](CNc3ncnc(C(=O)N4CCC(N5CCC(c6cccc(C(=O)O)c6)C5)CC4)c3C)O2)cc1` (some centres unmarked) [Example 55] was tested, and the Ki was 311 nM.
Molecule `Cc1ccc(C2CCC[C@H](CNc3ncnc(C(=O)N4CCC(N5CCC(c6cccc(C(=O)O)c6)CC5)CC4)c3C)O2)cc1` (some centres unmarked) [Example 56] has a Ki of 802 nM.
With `Cc1ccc(C2CCC[C@H](CNc3ncnc(C(=O)N4CCC(N5CCCC(c6cccc(C(=O)O)c6)C5)CC4)c3C)O2)cc1` (some centres unmarked) [Example 57] the Ki was 1800 nM.
`Cc1ccc(C2CCC[C@H](CNc3ncnc(C(=O)N4CCC(N5CCC(c6ccc(C(=O)O)cc6)C5)CC4)c3C)O2)cc1` (some centres unmarked) [Example 58] was tested, and the Ki was 1130 nM.
`Cc1ccc(C2CCC[C@H](CNc3ncnc(C(=O)N4CCC(N5CCC(c6ccccc6C(=O)O)C5)CC4)c3C)O2)cc1` (some centres unmarked) [Example 59] was tested, and the Ki was 263 nM.
`Cc1ccc([C@H]2CCC[C@@H](CNc3ncnc(C(=O)N4CCC(N5CCC6(CC5)CC(C(=O)O)c5ccccc56)CC4)c3C)O2)cc1` (some centres unmarked) [Example 60] gave a Ki of 733 nM.

— patent US8765949B2, “CCR2 receptor antagonists and uses thereof” (Boehringer Ingelheim International GmbH, priority 2009, dated 2014)
